According to ChEMBL document CHEMBL6083245, “Digoxin and its Na+/K+-ATPase-targeted actions on cardiovascular diseases and cancer” (Bioorg Med Chem, 2024):

Legend:
Type in all cases: functional, cell-based
HCT-8 = assay: Cytotoxicity against human HCT-8 cells assessed as reduction in cell growth incubated for 72 hrs by MTT assay; conditions: HCT-8, 72 h
HT-29 = assay: Cytotoxicity against human HT-29 cells assessed as reduction in cell growth incubated for 72 hrs by MTT assay; conditions: HT-29, 72 h
SW-620 = assay: Cytotoxicity against human SW620 cells assessed as reduction in cell growth incubated for 72 hrs by MTT assay; conditions: SW-620, 72 h
MDA-MB-231 = assay: Cytotoxicity against human MDA-MB-231 cells assessed as reduction in cell growth incubated for 72 hrs by MTT assay; conditions: MDA-MB-231, 72 h
OVCAR-3 = assay: Cytotoxicity against human OVCAR-3 cells assessed as reduction in cell growth incubated for 72 hrs by MTT assay; conditions: OVCAR-3, 72 h
MDA-MB-435 = assay: Cytotoxicity against human MDA-MB-435 cells assessed as reduction in cell growth incubated for 72 hrs by MTT assay; conditions: MDA-MB-435, 72 h
NCI-H69 = assay: Antiproliferative activity against human NCI-H69 cells assessed as reduction in cell viability incubated for 48 hrs by Cell-titer Glo luminescent assay; conditions: NCI-H69, 48 h
NCI-H82 = assay: Antiproliferative activity against human NCI-H82 cells assessed as reduction in cell viability incubated for 48 hrs by Cell-titer Glo luminescent assay; conditions: NCI-H82, 48 h
[1] = Antiproliferative activity against human NCI-H196 cells assessed as reduction in cell viability incubated for 48 hrs by Cell-titer Glo luminescent assay; conditions: NCI-H196, 48 h
NCI-H1963 = assay: Antiproliferative activity against human NCI-H1963 cells assessed as reduction in cell viability incubated for 48 hrs by Cell-titer Glo luminescent assay; conditions: NCI-H1963, 48 h
NCI-H526 = assay: Antiproliferative activity against human NCI-H526 cells assessed as reduction in cell viability incubated for 48 hrs by Cell-titer Glo luminescent assay; conditions: NCI-H526, 48 h
A549 = assay: Antiproliferative activity against human A549 cells assessed as reduction in cell viability incubated for 48 hrs by Cell-titer Glo luminescent assay; conditions: A549, 48 h
NCI-H1299 = assay: Antiproliferative activity against human NCI-H1299 cells assessed as reduction in cell viability incubated for 48 hrs by Cell-titer Glo luminescent assay; conditions: NCI-H1299, 48 h
[2] = Antiproliferative activity against human NSCLC cells assessed as reduction in cell viability incubated for 48 hrs by Cell-titer Glo luminescent assay
HeLa = assay: Antiproliferative activity against human HeLa cells assessed as reduction in cell viability by MTS assay

- IC50 (NCI-H69): 50 nM
- IC50 (NCI-H82): 50 nM
- IC50 (NCI-H1963): 50 nM
- IC50 (NCI-H526): 50 nM
- IC50 (A549): 50 nM
- IC50 (NCI-H1299): 50 nM
- IC50 (HeLa): 0.2 nM
SMILES: C[C@H]1O[C@@H](O[C@H]2[C@@H](O)C[C@H](O[C@H]3[C@@H](O)C[C@H](O[C@H]4CC[C@@]5(C)[C@H](CC[C@@H]6[C@@H]5C[C@@H](O)[C@]5(C)[C@@H](C7=CC(=O)OC7)CC[C@]65O)C4)O[C@@H]3C)O[C@@H]2C)C[C@H](O)[C@@H]1O [DIGOXIN]
- IC50 (HCT-8): 100 nM
- IC50 (HT-29): 100 nM
- IC50 (SW-620): 100 nM
- IC50 (MDA-MB-231): 100 nM
- IC50 (OVCAR-3): 100 nM
- IC50 (MDA-MB-435): 100 nM
- IC50 [1]: 50 nM
- IC50 [2]: 50 nM
